The test concerns the target T1, Solute carrier family 15 member 2 (Rattus norvegicus) (UniProt Q63424).
T1 sequence (whole entry): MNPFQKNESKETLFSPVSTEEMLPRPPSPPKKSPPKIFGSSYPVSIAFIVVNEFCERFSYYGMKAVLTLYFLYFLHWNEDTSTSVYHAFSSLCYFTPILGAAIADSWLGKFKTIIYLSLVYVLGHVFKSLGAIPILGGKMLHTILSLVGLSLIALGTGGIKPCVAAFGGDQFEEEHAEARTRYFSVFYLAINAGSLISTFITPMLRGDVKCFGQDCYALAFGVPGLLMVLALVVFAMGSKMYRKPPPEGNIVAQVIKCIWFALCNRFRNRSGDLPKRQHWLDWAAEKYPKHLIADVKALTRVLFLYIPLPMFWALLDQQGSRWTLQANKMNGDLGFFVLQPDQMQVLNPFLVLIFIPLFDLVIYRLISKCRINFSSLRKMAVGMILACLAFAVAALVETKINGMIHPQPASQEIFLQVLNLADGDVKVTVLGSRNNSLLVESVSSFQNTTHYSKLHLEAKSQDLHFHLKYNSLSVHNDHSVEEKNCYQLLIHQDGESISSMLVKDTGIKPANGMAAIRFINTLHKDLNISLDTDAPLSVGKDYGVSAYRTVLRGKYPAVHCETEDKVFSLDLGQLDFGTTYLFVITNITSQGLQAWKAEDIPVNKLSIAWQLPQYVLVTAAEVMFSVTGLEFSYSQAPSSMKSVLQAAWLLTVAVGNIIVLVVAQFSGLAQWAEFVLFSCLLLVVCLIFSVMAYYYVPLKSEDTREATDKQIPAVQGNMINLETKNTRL
The experiment in a line: TP_TRANSPORTER: uptake in Xenopus laevis oocytes. Particulars: Oocyte. The format is functional, cell-based.

Take `CC(C)C[C@H](NC(=O)[C@@H](O)[C@H](N)Cc1ccccc1)C(=O)O`: the Activity entry is “substrate [+]”.
